Where two headings read alike, the source gives them in different places.
Tests used:
Menin-MLL = biological target: T1, Menin-MLL (Homo sapiens, UniProt O00255); assay: Inhibitory activity against Menin-MLL binding (fluorescence polarization); conditions: 150 nM His-Menin, 15 nM FITC-MLL, 25°C for 60 min
T1 construct: His-Menin (M1-L615 end); purchased BIORTUS BP9210
T1 sequence (O00255 1-615 isoform O00255-1): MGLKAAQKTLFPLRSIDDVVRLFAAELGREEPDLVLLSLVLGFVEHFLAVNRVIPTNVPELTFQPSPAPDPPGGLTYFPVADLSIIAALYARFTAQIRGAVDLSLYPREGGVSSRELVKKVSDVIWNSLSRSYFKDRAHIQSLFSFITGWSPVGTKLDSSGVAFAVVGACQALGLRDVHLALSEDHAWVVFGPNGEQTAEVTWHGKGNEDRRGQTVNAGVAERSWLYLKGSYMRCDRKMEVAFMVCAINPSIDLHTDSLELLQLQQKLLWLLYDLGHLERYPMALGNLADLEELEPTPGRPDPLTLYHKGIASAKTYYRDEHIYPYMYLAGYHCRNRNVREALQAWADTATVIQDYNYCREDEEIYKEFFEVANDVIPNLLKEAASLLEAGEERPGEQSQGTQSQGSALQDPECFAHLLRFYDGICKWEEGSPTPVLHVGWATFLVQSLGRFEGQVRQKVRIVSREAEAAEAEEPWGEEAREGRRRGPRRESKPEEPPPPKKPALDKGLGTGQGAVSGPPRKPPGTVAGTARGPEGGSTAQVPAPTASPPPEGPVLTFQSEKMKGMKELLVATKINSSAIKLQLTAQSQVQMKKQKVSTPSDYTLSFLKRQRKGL
Outline: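 Fluorescence polarization competition: compound and 150 nM His-tagged menin (residues M1-L615) sit 15 min at 25 °C in pH 7.5 HEPES buffer with NaCl, DTT and BSA; 15 nM FITC-labelled MLL peptide then binds for 60 min. IC50 fitted sigmoidally from mP values, duplicate wells.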

[1] = test system: MV-4-11 (carrying MLL-AF4); assay: Inhibition of proliferation of human tumor cells (Alamar Blue, 7 days), MV-4-11; format: cell-based; conditions: Homo sapiens, MV4-11, 168 h, MV-4-11 cells (carrying MLL-AF4), method calls the value GI50
Outline: (§1)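 GI50 values reflect growth inhibition over 7 days, read by Alamar Blue. Seeding density was 4,000 cells/well except KG-1a (3,000 cells/well); each line grew in its own FBS-containing medium at 37°C.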

KG-1a (wild-type MLL) = assay: Inhibition of proliferation of human tumor cells (Alamar Blue, 7 days), KG-1a control cell line; format: cell-based; conditions: 168 h, KG-1a cells (wild-type MLL, control cell line), method calls the value GI50
From the text: Experimental Example 2: Evaluation of Inhibitory Activity of Compounds Against Proliferation of Human Tumor Cells
• Human acute lymphoblastic leukemia cells MV-4-11, purchased from American Type Culture Collection, Catalog Number: CRL-9591; • Human acute myeloid leukemia cells MOLM-13, purchased from COBIOER BIOSCIENCES CO., LTD, Catalog Number: CBP60678; • Human acute myeloid leukemia cells KG-1a, purchased from American Type Culture Collection, Catalog Number: CCL-246.1; • Inverted Microscope, purchased from Olympus Tokyo; • Countess™ Automated Cell Counter, purchased from Invitrogen, Model: C10281; and • Multilabel Reader, purchased from Bio-Tek, Model: Synergy HT.
MV-4-11 cells were cultured in an IMDM medium containing 10% fetal bovine serum, KG-a cells were cultured in an IMDM medium containing 20% fetal bovine serum, or MOLM-13 cells were cultured in an RPMI-1640 medium containing 20% fetal bovine serum, each supplemented with 100 U·mL^-1 penicillin and 100 µg·mL^-1 streptomycin. These cells were cultured at 37°C with 5% CO2. The suspensions of individual cell lines were prepared in their respective media and seeded into 96-well plates at a density of 4,000 cells/well for MV-4-11 and MOLM-13 cells, or 3,000 cells/well for KG-1a cells. On the day of the experiment, a compound stock solution was diluted in a 3-fold or 4-fold gradient using DMSO. Each gradient-diluted stock solution was then further diluted 250-fold with a complete medium to prepare a series of working solutions at different concentrations. Subsequently, 100 µL of working solution (containing a 2-fold concentration series of the test compound) was added to each well, with duplicate wells set up for each concentration.
Seven days after compound addition (on Day 7), an Alamar Blue assay reagent (MCE, HY-111391 / CS-0040317) was added to measure the fluorescence intensity in each well. Wells containing the cells in the growth medium supplemented with 0.1% DMSO (Day 7) served as high-read control wells. The readouts from the wells containing the cells in the growth medium supplemented with 0.1% DMSO on the day of compound addition (Day 0) served as low-reading control well. GraphPad Prism software was used to calculate the concentration required to inhibit 50% of cell proliferation (GI50), which serves as a cell proliferation inhibition activity index.

[2] = test system: MOLM-13 (carrying MLL-AF9); assay: Inhibition of proliferation of human tumor cells (Alamar Blue, 7 days), MOLM-13; format: cell-based; conditions: Homo sapiens, MOLM-13 cells (carrying MLL-AF9), method calls the value GI50
Outline: as §1

[3] = Menin-MLL IC50, fluorescence polarization
[4] = fluorescence polarization, read-out: Menin-MLL IC50

| Structure (SMILES) | IC50 (KG-1a (wild-type MLL)) [nM] | IC50 (Menin-MLL; [4]) [nM] | IC50 ([2]; 168 h) [nM] | IC50 (Menin-MLL; [3]) [nM] | IC50 [1] [nM] | IC50 ([2]; MOLM-13, 168 h) [nM] | IC50 (Menin-MLL; read-out: Menin-MLL IC50, fluorescence polarization) [nM] |
| --- | --- | --- | --- | --- | --- | --- | --- |
| CCN(C(=O)c1cc(F)ccc1-c1cc(C2(F)CCN(C[C@H]3CC[C@H](NS(=O)(=O)CC)CC3)C2)cn2c(C)ncc12)C(C)C (some centres unmarked) [Example 73, N-ethyl-5-fluoro-2-[6-(3-fluoro-1-{[(1r,4r)-4-ethanesulfonamidocyclohexyl]methyl}pyrrolidin-3-yl)-3-methylimidazo[1,5-a]pyridin-8-yl]-N-(isopropyl) benzamide] | 20000 |  |  | 28 | 61 |  |  |
| COCCN(C)CCCC(C(C)C)N1CC(c2cc(-c3ccc(F)cc3C(=O)N3CCOC[C@H]3C)c3cnn(C)c3c2)C1 (some centres unmarked) [Example 162] | 7000 | 24 | 67 |  | 27 |  |  |
| CCC(=O)N1CCC(CN2CC(Cc3cc(-c4ccc(F)cc4C(=O)N4CCOC[C@H]4C)c4cncc(C)n34)C2)CC1 [Example 287] | 20000 | 6 | 48 |  | 9 |  |  |
| Cc1nc(F)c2c(-c3ccc(F)cc3C(=O)N3CCOC[C@H]3C)cc(C3CN([C@H](CCCN4CCn5nccc5C4)C(C)C)C3)cn12 [Example 351, (3R)-4-[5-fluoro-2-(1-fluoro-3-methyl-6-{1-[(3R)-2-methyl-6-{4H,5H,6H,7H-pyrazolo[1,5-a]pyrazin-5-yl}hexan-3-yl]azacyclobutan-3-yl}imidazo[1,5-a]pyridin-8-yl)benzoyl]-3-methylmorpholine] | > 20000 | 12.5 | 44 |  |  |  |  |
| Cc1ncc2c(-c3ccc(F)cc3C(=O)N(C(C)C)C3CC3)cc(N3CCN(C(=O)C4NC5CCC4CC5)CC3)cn12 [Example 72, N-cyclopropyl-5-fluoro-2-(3-methyl-6-{4-[(1R,3S,4S)-2-azabicyclo[2.2.2]octan-3-carbonyl]piperazin-1-yl}imidazo[1,5-a]pyridin-8-yl)-N-(isopropyl)benzamide] | 20000 |  |  | 54 | 57 |  |  |
| CCN(C(=O)c1cc(F)ccc1-c1cc([C@@H]2CCN(C[C@H]3CC[C@H](NS(=O)(=O)CC)CC3)C2)cn2cncc12)C(C)C [Example 22-2] | 20000 |  |  | 14 | 22 |  |  |
| CCN(C(=O)c1cc(F)ccc1-c1cc(C2=CCC(NCc3ccc(-c4cc(OC)c(OC)nn4)cc3)CC2)cn2cncc12)C(C)C (centres unmarked) [Example 17] | 20000 | 9.5 |  |  | 17 |  |  |
| CCN(C(=O)c1cc(F)ccc1-c1cc(N2CCC(NCc3ccc(-c4cc(OC)c(OC)nn4)cc3)CC2)cn2cncc12)C(C)C [Example 19, 2-{6-[4-({[4-(5,6-dimethoxypyridazin-3-yl)phenyl]methyl}amino)piperidin-1-yl]imidazo[1,5-a]pyridin-8-yl}-N-ethyl-5-fluoro-N-isopropylbenzamide] | 20000 | 43.5 |  |  | 49 |  |  |
| CC(C)[C@@H](CCCN1CCN(C)CC1)N1CC(c2cc(-c3ccc(F)cc3C(=O)N3CCOC[C@H]3C)c3cnn(C)c3c2)C1 [Example 358] | > 20000 |  |  | 13.5 |  | 91 |  |
| CCN(C(=O)c1cc(F)ccc1-c1cc([C@H]2CCN(C[C@H]3CC[C@H](NS(=O)(=O)CC)CC3)C2)cn2cncc12)C(C)C [Example 22-1, N-ethyl-5-fluoro-N-isopropyl-2-{6-[(3R)-1-{[(1r,4r)-4-ethanesulfonamidocyclohexyl]methyl}pyrrolidin-3-yl]imidazo[1,5-a]pyridin-8-yl}benzamide] | 20000 |  |  | 23 | 79 |  |  |
| CCN(C(=O)c1cc(F)ccc1-c1cc(N2CCC(NCc3ccc(-c4cc(OC)c(OC)nn4)cc3F)CC2)cn2cncc12)C(C)C [Example 20] | 20000 | 45 |  |  | 54 |  |  |
| CCN(C(=O)c1cc(F)ccc1-c1cc(C2=CCC(NCc3ccc4oc(=O)[nH]c4c3)CC2)cn2cncc12)C(C)C (centres unmarked) [Example 16, N-ethyl-5-fluoro-2-[6-(4-{[(2-oxo-2,3-dihydro-l,3-benzoxazol-5-yl)methyl]amino}cyclohexyl-1-ene-1-yl)imidazo[1,5-a]pyridin-8-yl]-N-isopropylbenzamide] | 20000 |  |  |  | 14 |  | 14.5 |
| CCN(C(=O)c1cc(F)ccc1-c1cc([C@@H]2CCN(C[C@H]3CC[C@H](NS(=O)(=O)CC)CC3)C2)cc2cncn12)C(C)C [Example 25-1, N-ethyl-5-fluoro-N-isopropyl-2-{7-[(3S)-1-{[(1r,4r)-4-ethanesulfonamidocyclohexyl]methyl}pyrrolidin-3-yl]imidazo[1,5-a]pyridin-5-yl}benzamide] | 12600 |  |  | 5.7 | 4.7 |  |  |
| CCN(C(=O)c1cc(F)ccc1-c1cc(C2CCN(C[C@H]3CC[C@H](NS(=O)(=O)CC)CC3)C2)cc2c1cnn2C)C(C)C (some centres unmarked) [Example 15, N-ethyl-5-fluoro-2-[1-methyl-6-(1-{[(1r,4r)-4-ethanesulfonamidocyclohexyl]methyl}pyrrolidin-3-yl)-1H-indazol-4-yl]-N-isopropylbenzamide] | 17000 |  |  | 11.5 | 23 |  |  |
| CCN(C(=O)c1cc(F)ccc1-c1cc(C2CN([C@H](CCCN3CCC(OC)CC3)C(C)C)C2)cn2c(C)ncc12)C(C)C [Example 389, N-ethyl-5-fluoro-2-(6-{1-[(3R)-6-(4-methoxypiperidin-1-yl)-2-methylhexan-3-yl]azacyclobutan-3-yl}-3-methylimidazo[1,5-a]pyridin-8-yl)-N-(isopropyl)benzamide] | 12000 | 1.9 | 5.3 |  |  |  |  |

Second part, led by results:

| IC50 (KG-1a (wild-type MLL)) [nM] | IC50 (Menin-MLL; [4]) [nM] | IC50 ([2]; 168 h) [nM] | Structure (SMILES) | IC50 (Menin-MLL; [3]) [nM] | IC50 [1] [nM] | IC50 ([2]; MOLM-13, 168 h) [nM] | IC50 (Menin-MLL; read-out: Menin-MLL IC50, fluorescence polarization) [nM] |
| --- | --- | --- | --- | --- | --- | --- | --- |
| 15000 | 3.9 | 7.7 | CCN(C(=O)c1cc(F)ccc1-c1cc(C2CN([C@H](CN3CCN(C)CC3)C(C)C)C2)cn2c(C)ncc12)C(C)C [Example 403-1, N-ethyl-5-fluoro-2-(3-methyl-6-{1-[(2S)-3-methyl-1-(4-methylpiperazin-1-yl)butan-2-yl]azacyclobutan-3-yl}imidazo[1,5-a]pyridin-8-yl)-N-(isopropyl)benzamide] |  |  |  |  |
| 11000 | 10 | 65 | CCN(C(=O)c1cc(F)ccc1-c1cc(C2CN([C@H](CN3CCN(C)CC3)C(C)C)C2)cc2c1cnn2C)C(C)C [Example 402-2, N-ethyl-5-fluoro-2-(1-methyl-6-{1-[(2S)-3-methyl-1-(4-methylpiperazin-1-yl)butan-2-yl]azacyclobutan-3-yl}-1H-indazol-4-yl)-N-(isopropyl)benzamide] |  |  |  |  |

Reference: EP4782453A1 (Beyang Therapeutics Co., Ltd., priority 2023, dated 2025)
